Reference: paper PMC5384962, “First-in-human studies of seletalisib, an orally bioavailable small-molecule PI3Kδ inhibitor for the treatment of immune and inflammatory diseases” (European Journal of Clinical Pharmacology, 2017)
Read-outs that look alike come from different tables or passages of the source.

Key:
[1] = Study-2 single-dose pharmacokinetics (plasma); assay type: in vivo, human; conditions: for AUC(0-t) / half-life / Cmax / Tmax / AUC / MRT / Vd/F: human, plasma, oral; for Vd/F: read-out: Vz/F
Text: These were phase I, randomised, double-blind, placebo-controlled studies designed to evaluate the safety, tolerability, PK and PD profiles of seletalisib following oral administration of single ascending doses and multiple ascending doses. Study-1 was a first-in-human, double-blind (sponsor-, investigator- and subject-blind) study that had two parts: Part-A evaluated seletalisib (single ascending doses) in healthy adults (including evaluation of food effects; Table 1); Part-B evaluated seletalisib (multiple ascending doses) in healthy adults and subjects with mild-to-moderate psoriasis. Study-2 was also a double-blind study of seletalisib (single and multiple ascending doses) in healthy subjects, which investigated higher doses.
Plasma concentrations of seletalisib were measured by high-performance liquid chromatography with tandem mass spectrometry (see Online Resource S1 for further details). The following PK parameters were determined in each study: AUC for seletalisib, maximum observed plasma concentration of seletalisib after a single dose (Cmax) and at steady-state (Cmaxss), time of occurrence of Cmax (tmax, obtained directly from the observed plasma concentration-time curves), minimum observed plasma concentration of seletalisib at steady-state immediately before the next dose would be administered (Ctrough), apparent terminal half-life, apparent volume of distribution after single dosing (Vz/F) and at steady-state (Vzss/F) and apparent total body clearance after single dosing (CL/F) and at steady-state (CLss/F). Accumulation factor based on AUC(0–24) [R(AUC)] and accumulation factor based on Cmax [R(Cmax)] were determined on multiple dose day 14. The following study-specific PK parameters were also determined: Study-1, total amount of seletalisib excreted in urine (Ae), renal clearance (CLr) and fraction of drug excreted in urine; Study-2, AUC(0–10) in BID dose groups, terminal elimination rate constant in plasma (λz), mean residence time (MRT) and linearity factor (LF [AUC(0–24)ss/AUC]).
Methods for the calculation of seletalisib PK parameters are detailed in Online Resource S1.
Seletalisib PK parameters were calculated via non-compartmental analysis methods from the individual concentration-time data using Phoenix WinNonlin version 6.2 (Certara, Princeton, NJ, USA). Urine (Study-1 only) and plasma PK parameters of seletalisib were reported for each subject and summarised by study part and dose group. Geometric mean and percentage geometric coefficient of variation (GeoCV%) were reported for all parameters except for tmax, which was reported using median and range. Dose proportionality for AUC and Cmax at Day_1 (Study-1 [Part-A & Part-B]; Study-2, single ascending dose-Day_1) and at steady state at Day_14 (Study-1 [Part-B]; Study-2, multiple ascending dose-Day_14) was examined via the power model and reported graphically. In Study-1, an assessment of food effect (fed versus fasted) was made for Cmax and AUC from the data for subjects who received the same dose in fed and fasted states in Part-A.

basophil degranulation = experiment: Study-1 ex vivo basophil degranulation (anti-IgE-driven CD63 expression, whole blood); assay type: in vivo, human; conditions: Study-1 Part-A, single doses; very high variability
Protocol: Subjects were assessed for basophil degranulation following stimulation at multiple time points, as described in Online Resource S1.
Degranulation of basophils was determined in whole blood by monitoring increased cell surface CD63 expression utilizing flow cytometry in an ex vivo stimulation assay driven by anti-IgE (Study-1) or anti-FcεR1 (Study-2). Briefly, blood was collected in lithium-heparin tubes (BD Biosciences, Oxford, UK) and stimulated with IgE or FcεRI cross-linking antibodies (eBiosciences, Hatfield, UK) for 12 min at 37°C. Following red blood cell lysis by addition of BD FACSlyse (BD Biosciences, Oxford, UK), samples were centrifuged and the supernatant discarded. The cell pellet was washed in PBS and re-suspended in fixative (5% formaldehyde in PBS). CD63 expression was determined on basophils (side-scatter low, CD123+HLA-DR-) and detected by flow cytometry using the BD antibody cocktail containing CD63, CD123, and anti-HLA-DR.

[2] = Study-2 single dose, 30 mg QD cohort, geo mean (GeoCV%)
[3] = Study-2 single dose, 45 mg QD cohort, geo mean (GeoCV%)
[4] = Study-2 single dose, 60 mg QD cohort, geo mean (GeoCV%)
[5] = Study-2 single dose, 90 mg QD cohort, geo mean (GeoCV%)

[O-][n+]1cccc(-c2nc3c(Cl)cccc3cc2[C@@H](Nc2ncnc3cccnc23)C(F)(F)F)c1 [Seletalisib, seletalisib]
CL/F [1, 2]: 2.65 (30.4) L/h | CL/F [1, 3]: 2.61 (33.0) L/h | CL/F [1, 4]: 2.19 (32.3) L/h | CL/F [1, 5]: 2.58 (33.3) L/h | AUC(0-t) ([1]; 30 mg, Study-2 single dose, 30 mg QD cohort, geo mean (GeoCV%), read-out: AUC(0–24)): 6490 ng·h/mL | AUC(0-t) ([1]; 30 mg, Study-2 single dose, 30 mg QD cohort, geo mean (GeoCV%), read-out: AUC(0–t)): 10200 ng·h/mL | AUC(0-t) ([1]; 30 mg, Study-2 single-dose part, 30 mg BID cohort, geo mean (GeoCV%), read-out: AUC(0–10)): 3500 ng·h/mL | AUC(0-t) ([1]; 45 mg, Study-2 single dose, 45 mg QD cohort, geo mean (GeoCV%), read-out: AUC(0–24)): 9280 ng·h/mL | AUC(0-t) ([1]; 45 mg, Study-2 single dose, 45 mg QD cohort, geo mean (GeoCV%), read-out: AUC(0–t)): 15100 ng·h/mL | AUC(0-t) ([1]; 60 mg, Study-2 single dose, 60 mg QD cohort, geo mean (GeoCV%), read-out: AUC(0–24)): 16300 ng·h/mL | AUC(0-t) ([1]; 60 mg, Study-2 single dose, 60 mg QD cohort, geo mean (GeoCV%), read-out: AUC(0–t)): 25100 ng·h/mL | AUC(0-t) ([1]; 90 mg, Study-2 single dose, 90 mg QD cohort, geo mean (GeoCV%), read-out: AUC(0–24)): 19700 ng·h/mL | AUC(0-t) ([1]; 90 mg, Study-2 single dose, 90 mg QD cohort, geo mean (GeoCV%), read-out: AUC(0–t)): 31200 ng·h/mL | half-life ([1]; Study-2, range across dose groups, read-out: geometric mean t1/2): 18.1 to 22.4 h | Cmax ([1]; Study-2, single dose, range across groups, read-out: geometric mean Cmax): 517 to 1510 ng/mL | Tmax ([1]; Study-2, single dose, range across groups, read-out: median tmax): 3 to 4 h | AUC [1, 2]: 11300 ng·h/mL | MRT [1, 2]: 22.1 h | Cmax ([1]; Study-2 single dose, 30 mg QD cohort, geo mean (GeoCV%), read-out: Cmax): 517 ng/mL | Vd/F [1, 2]: 74.4 L | half-life ([1]; Study-2 single dose, 30 mg QD cohort, geo mean (GeoCV%), read-out: t1/2 (converted)): 19.5 h | Tmax ([1]; Study-2 single dose, 30 mg QD cohort, median (range), read-out: tmax): 4 h | AUC [1, 3]: 17300 ng·h/mL | MRT [1, 3]: 23 h | Cmax ([1]; Study-2 single dose, 45 mg QD cohort, geo mean (GeoCV%), read-out: Cmax): 691 ng/mL | Vd/F [1, 3]: 84.2 L | half-life ([1]; Study-2 single dose, 45 mg QD cohort, geo mean (GeoCV%), read-out: t1/2 (converted)): 22.4 h | Tmax ([1]; Study-2 single dose, 45 mg QD cohort, median (range), read-out: tmax): 4 h | AUC [1, 4]: 27400 ng·h/mL | MRT [1, 4]: 21.5 h | Cmax ([1]; Study-2 single dose, 60 mg QD cohort, geo mean (GeoCV%), read-out: Cmax): 1250 ng/mL | Vd/F [1, 4]: 57.2 L | half-life ([1]; Study-2 single dose, 60 mg QD cohort, geo mean (GeoCV%), read-out: t1/2 (converted)): 18.1 h | Tmax ([1]; Study-2 single dose, 60 mg QD cohort, median (range), read-out: tmax): 3 h | AUC [1, 5]: 34900 ng·h/mL | MRT [1, 5]: 22.4 h | Cmax ([1]; Study-2 single dose, 90 mg QD cohort, geo mean (GeoCV%), read-out: Cmax): 1510 ng/mL | Vd/F [1, 5]: 77.3 L | half-life ([1]; Study-2 single dose, 90 mg QD cohort, geo mean (GeoCV%), read-out: t1/2 (converted)): 20.8 h | Tmax ([1]; Study-2 single dose, 90 mg QD cohort, median (range), read-out: tmax): 4 h | inhibition of basophil degranulation compared with placebo (basophil degranulation): inhibition of basophil degranulation was observed in all seletalisib-treated groups
